Measured values published in patent US9371331B2, “Modulators of methyl modifying enzymes, compositions and uses thereof” (Constellation Pharmaceuticals, Inc., priority 2012, dated 2016).
Where two headings read alike, the source gives them in different places.

Key:
Y641N EZH2 = Y641N EZH2 (Homo sapiens, UniProt Q15910, Y641N); test: Y641N EZH2 assay: as EZH2 assay, with reconstituted H3K27Me2 oligonucleosomes as substrate; assay type: biochemical
EZH2 (rPRC2) = EZH2 (rPRC2) (Homo sapiens, UniProt Q15910); test: EZH2 assay: rPRC2, biotinylated oligonucleosomes, 3H SAM methyl transfer (FlashPlate scintillation); assay type: biochemical; details: biotinylated oligonucleosome substrate
Description: Assays were carried out by mixing rPRC2 together with biotinylated oligonucleosome substrates in the presence of the radio-labeled enzyme co-factor, S-adenosyl-1-methionine (^3H SAM) (Perkin Elmer) and monitoring the enzymatically mediated transfer of tritiated methyl groups from ^3H SAM to histone lysine residues. The amount of resulting tritiated methyl histone product was measured by first capturing the biotinylated oligonucleosomes in streptavidin (SAV) coated FlashPlates (Perkin Elmer), followed by a wash step to remove un-reacted ^3H SAM, and then counting on a TopCount NXT 384 well plate scintillation counter (Perkin Elmer). The final assay conditions for EZH2 were as follows: 50 mM Tris Buffer pH 8.5, 1 mM DTT, 69 μM Brij-35 detergent, 5.0 mM MgCl2, 0.1 mg/mL BSA, 0.2 μM ^3H SAM, 0.2 μM biotinylated oligonucleosomes, 3.6 μM H3K27 mc3 peptide and 2 nM EZH2.
A 12.5 μL volume of the HMT enzyme, H3K27me3 peptide and oligonucleosome substrate in assay buffer was added to each well of the assay plate using a Multidrop Combi (ThermoFisher). Compounds were pre-incubated with the enzyme for 20 min, followed by initiation of the methyltransferase reaction by addition of 12.5 μL of ^3H SAM in assay buffer (final volume=25 μL). The final concentrations of compounds ranged from a top default concentration of 80 μM down to 0.16 μM in ten 2-fold dilution steps. Reactions were carried out for 60 minutes and quenched with 20 μL per well of 1.96 mM SAH, 50 mM Tris pH 8.5, 200 mM EDTA. Stopped reactions were transferred to SAV coated Flashplates (Perkin Elmer), incubated for 120 min, washed with a plate washer, and then read on the TopCount NXT (1.0 min/well) to measure the amount of methyl histone product formed during the reaction.

[1] = Y641N EZH2 IC50, Y641N mutant EZH2, H3K27Me2 oligonucleosome substrate
[2] = EZH2 IC50, wild-type EZH2 (rPRC2)
[3] = Y641N mutant EZH2, H3K27Me2 oligonucleosome substrate, read-out: Y641N EZH2 IC50
[4] = wild-type EZH2 (rPRC2), read-out: EZH2 IC50

EZH2 (rPRC2), sequence (Q15910 whole entry): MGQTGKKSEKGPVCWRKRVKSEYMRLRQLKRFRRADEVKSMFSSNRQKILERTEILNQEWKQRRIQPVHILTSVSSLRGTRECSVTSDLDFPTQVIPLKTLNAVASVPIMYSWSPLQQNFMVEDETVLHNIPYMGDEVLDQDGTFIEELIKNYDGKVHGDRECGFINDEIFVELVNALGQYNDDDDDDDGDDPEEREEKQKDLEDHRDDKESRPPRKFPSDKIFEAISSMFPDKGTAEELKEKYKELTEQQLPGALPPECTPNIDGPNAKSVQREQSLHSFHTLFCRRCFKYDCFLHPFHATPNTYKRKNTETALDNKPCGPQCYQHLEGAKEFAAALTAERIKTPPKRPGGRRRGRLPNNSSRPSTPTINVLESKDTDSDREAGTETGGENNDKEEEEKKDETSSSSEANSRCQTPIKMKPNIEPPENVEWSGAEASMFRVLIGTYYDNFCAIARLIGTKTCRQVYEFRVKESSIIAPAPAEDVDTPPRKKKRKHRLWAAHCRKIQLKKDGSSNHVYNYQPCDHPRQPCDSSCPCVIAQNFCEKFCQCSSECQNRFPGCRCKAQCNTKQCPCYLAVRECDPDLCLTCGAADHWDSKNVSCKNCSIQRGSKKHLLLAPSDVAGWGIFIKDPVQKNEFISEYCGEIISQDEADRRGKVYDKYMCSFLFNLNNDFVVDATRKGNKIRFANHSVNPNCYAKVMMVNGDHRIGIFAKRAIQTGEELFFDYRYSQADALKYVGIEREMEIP
EZH2 (rPRC2), sequence (O75530 whole entry partner): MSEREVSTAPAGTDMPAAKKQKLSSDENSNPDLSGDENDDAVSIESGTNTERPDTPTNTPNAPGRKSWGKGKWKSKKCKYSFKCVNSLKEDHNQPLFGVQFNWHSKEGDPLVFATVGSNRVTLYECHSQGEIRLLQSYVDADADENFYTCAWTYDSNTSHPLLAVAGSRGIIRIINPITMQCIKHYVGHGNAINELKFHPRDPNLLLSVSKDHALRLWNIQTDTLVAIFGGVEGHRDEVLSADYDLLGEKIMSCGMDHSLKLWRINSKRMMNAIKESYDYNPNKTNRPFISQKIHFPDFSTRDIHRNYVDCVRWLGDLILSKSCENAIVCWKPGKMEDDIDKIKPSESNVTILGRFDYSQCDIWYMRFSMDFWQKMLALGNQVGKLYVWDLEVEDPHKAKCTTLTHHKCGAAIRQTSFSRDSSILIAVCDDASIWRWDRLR
EZH2 (rPRC2), sequence (Q15022 whole entry partner): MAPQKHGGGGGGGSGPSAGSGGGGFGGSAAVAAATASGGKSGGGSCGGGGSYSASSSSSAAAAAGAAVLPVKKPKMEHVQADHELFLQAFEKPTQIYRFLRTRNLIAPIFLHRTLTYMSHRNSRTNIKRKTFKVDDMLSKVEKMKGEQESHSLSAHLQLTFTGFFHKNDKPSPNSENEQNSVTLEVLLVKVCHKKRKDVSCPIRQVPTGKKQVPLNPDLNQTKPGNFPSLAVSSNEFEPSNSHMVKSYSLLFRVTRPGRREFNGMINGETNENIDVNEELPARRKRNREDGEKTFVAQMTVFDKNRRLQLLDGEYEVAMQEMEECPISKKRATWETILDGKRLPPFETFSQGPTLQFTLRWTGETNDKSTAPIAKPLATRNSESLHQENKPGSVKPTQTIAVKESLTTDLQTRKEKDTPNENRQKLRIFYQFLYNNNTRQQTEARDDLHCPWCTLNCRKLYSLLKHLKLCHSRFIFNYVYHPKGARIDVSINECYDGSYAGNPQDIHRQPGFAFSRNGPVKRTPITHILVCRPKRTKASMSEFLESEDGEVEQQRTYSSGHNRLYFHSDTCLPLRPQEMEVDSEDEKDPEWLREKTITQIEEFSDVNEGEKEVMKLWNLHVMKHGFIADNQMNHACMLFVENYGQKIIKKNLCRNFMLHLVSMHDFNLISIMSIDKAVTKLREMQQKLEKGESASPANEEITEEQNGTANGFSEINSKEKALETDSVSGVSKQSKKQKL
Y641N EZH2, sequence (Q15910 whole entry Y641N): as the sequence (Q15910 whole entry) above, with Y641N counted along it
Y641N EZH2, sequence (O75530 whole entry partner): as the sequence (O75530 whole entry partner) above
Y641N EZH2, sequence (Q15022 whole entry partner): as the sequence (Q15022 whole entry partner) above

| SMILES | IC50 (Y641N EZH2; [1]) [nM] | IC50 (EZH2 (rPRC2); [2]) [nM] | IC50 (Y641N EZH2; [3]) [nM] | IC50 (EZH2 (rPRC2); [4]) [nM] | IC50 (EZH2 (rPRC2); read-out: EZH2 IC50, wild-type EZH2 (rPRC2)) [nM] |
| --- | --- | --- | --- | --- | --- |
| CC[C@@H](C)n1c(C)c(C(=O)NCc2c(C)cc(C)[nH]c2=O)c2cnc(C(C)C)nc21 [Compound 197, (R)-7-(sec-butyl)-N-((4,6-dimethyl-2-oxo-1,2-dihydropyridin-3-yl)methyl)-2-isopropyl-6-methyl-7H-pyrrolo[2,3-d]pyrimidine-5-carboxamide] | 100 to 1000 | 100 to 1000 |  |  |  |
| Cc1cc(C)c(CNC(=O)c2c(C)n(C(C)c3ccccc3C)c3ccccc23)c(=O)[nH]1 (racemic) [Compound 174, (±)-N-((4,6-dimethyl-2-oxo-1,2-dihydropyridin-3-yl)methyl)-2-methyl-1-(1-(o-tolyl)ethyl)-1H-indole-3-carboxamide] | 1000 to 10000 | 100 to 1000 |  |  |  |
| CCC(OC)C(C)n1c(C)c(C(=O)NCc2c(OC)cc(C)[nH]c2=O)c2ccccc21 (stereo not shown) [Compound 299, N-((4-methoxy-6-methyl-2-oxo-1,2-dihydropyridin-3-yl)methyl)-1-(3-methoxypentan-2-yl)-2-methyl-1H-indole-3-carboxamide] | < 100 | < 100 |  |  |  |
| Cc1cc(C)c(CNC(=O)c2c(C)n(C(=O)c3ccccc3)c3ccccc23)c(O)n1 [Compound 150, 1-benzoyl-N-((2-hydroxy-4,6-dimethylpyridin-3-yl)methyl)-2-methyl-1H-indole-3-carboxamide] |  |  | 100 to 1000 | 100 to 1000 |  |
| COc1cc(C)[nH]c(=O)c1CNC(=O)c1c(C)n(C(C)[C@H]2CNCCO2)c2ncncc12 (stereo partly drawn) [Compound 351, N-((4-methoxy-6-methyl-2-oxo-1,2-dihydropyridin-3-yl)methyl)-6-methyl-7-(1-((R)-morpholin-2-yl)ethyl)-7H-pyrrolo[2,3-d]pyrimidine-5-carboxamide] | 100 to 1000 | < 100 |  |  |  |
| Cc1cc(C)c(COC(=O)c2c(C)n(C3CCc4ccccc43)c3ccccc23)c(=O)[nH]1 (single isomer, unassigned) [Compound 213, (R or S)-(4,6-dimethyl-2-oxo-1,2-dihydropyridin-3-yl)methyl 1-(2,3-dihydro-1H-inden-1-yl)-2-methyl-1H-indole-3-carboxylate] | 100 to 1000 | < 100 |  |  |  |
| Cc1cc(C)c(CNC(=O)c2c(C)n(C(C)c3ccccc3)c3c(=O)n(C)ccc23)c(=O)[nH]1 (racemic) [Compound 139, N-((4,6-dimethyl-2-oxo-1,2-dihydropyridin-3-yl)methyl)-2,6-dimethyl-7-oxo-1-(1-phenylethyl)-6,7-dihydro-1H-pyrrolo[2,3-c]pyridine-3-carboxamide] |  |  | 1000 to 10000 | 100 to 1000 |  |
| COc1cc(C)[nH]c(=O)c1CNC(=O)c1c(C)n(C(C)C(C)OC)c2cc(S(C)(=O)=O)ccc12 (stereo not shown) [Compound 323, N-((4-methoxy-6-methyl-2-oxo-1,2-dihydropyridin-3-yl)methyl)-1-(3-methoxybutan-2-yl)-2-methyl-6-(methylsulfonyl)-1H-indole-3-carboxamide] | 100 to 1000 | < 100 |  |  |  |
| COCC(C)n1c(C)c(C(=O)NCc2c(OC)cc(C)[nH]c2=O)c2ccc(C(F)(F)F)nc21 (racemic) [Compound 309, (±)-N-((4-methoxy-6-methyl-2-oxo-1,2-dihydropyridin-3-yl)methyl)-1-(1-methoxypropan-2-yl)-2-methyl-6-(trifluoromethyl)-1H-pyrrolo[2,3-b]pyridine-3-carboxamide] | 1000 to 10000 | 100 to 1000 |  |  |  |
| COc1cc(C)[nH]c(=O)c1CNC(=O)c1c(C)n(C(C)CC#N)c2ncccc12 (racemic) [Compound 301, (±)-1-(1-cyanopropan-2-yl)-N-((4-methoxy-6-methyl-2-oxo-1,2-dihydropyridin-3-yl)methyl)-2-methyl-1H-pyrrolo[2,3-b]pyridine-3-carboxamide] | 100 to 1000 | < 100 |  |  |  |
| CC[C@@H](C)n1c(C)c(C(=O)NCc2c(C)cc(C)[nH]c2=O)c2cnc(C)nc21 [Compound 200, (R)-7-(sec-butyl)-N-((4,6-dimethyl-2-oxo-1,2-dihydropyridin-3-yl)methyl)-2,6-dimethyl-7H-pyrrolo[2,3-d]pyrimidine-5-carboxamide] | 1000 to 10000 | 100 to 1000 |  |  |  |
| CC[C@@H](C)n1c(C)c(C(=O)NCc2c(C)cc(C)[nH]c2=O)c2cnc(C(=O)NC)nc21 [Compound 198, (R)-7-(sec-butyl)-N5-((4,6-dimethyl-2-oxo-1,2-dihydropyridin-3-yl)methyl)-N2,6-dimethyl-7H-pyrrolo[2,3-d]pyrimidine-2,5-dicarboxamidc] |  |  | 1000 to 10000 | 1000 to 10000 |  |
| COc1cc(C)[nH]c(=O)c1CNC(=O)c1c(C)n(C(C)C(OC)c2ccccc2)c2ncccc12 (stereo not shown) [Compound 265, 1-(1-methoxy-1-phenylpropan-2-yl)-N-((4-methoxy-6-methyl-2-oxo-1,2-dihydropyridin-3-yl)methyl)-2-methyl-1H-pyrrolo[2,3-b]pyridine-3-carboxamide] |  |  | 100 to 1000 | < 100 |  |
| CCOC(C)C(C)n1c(C)c(C(=O)NCc2c(OC)cc(C)[nH]c2=O)c2ccccc21 (racemic) [Compound 290, (±)-1-(3-ethoxybutan-2-yl)-N-((4-methoxy-6-methyl-2-oxo-1,2-dihydropyridin-3-yl)methyl)-2-methyl-1H-indole-3-carboxamide] | 100 to 1000 | < 100 |  |  |  |
| Cc1cc(C)c(CNC(=O)c2cnn(C(C)c3ccccc3)c2C)c(O)n1 (single isomer, unassigned) [Compound 107, (R or S)—N-((2-hydroxy-4,6-dimethylpyridin-3-yl)methyl)-5-methyl-1-(1-phenylethyl)-1H-pyrazole-4-carboxamide] |  |  | > 10000 | > 10000 |  |
| Cc1cc(C)c(CNC(=O)c2c(C)n(C(C)C3CC3)c3ncccc23)c(=O)[nH]1 (single isomer, unassigned) [Compound 252, (R or S)-(±)-1-(1-cyclopropylethyl)-N-((4,6-dimethyl-2-oxo-1,2-dihydropyridin-3-yl)methyl)-2-methyl-1H-pyrrolo[2,3-b]pyridine-3-carboxamide] | 100 to 1000 | < 100 |  |  |  |
| COc1cc(C)[nH]c(=O)c1CNC(=O)c1c(C)n(C(C)C#N)c2ncccc12 (racemic) [Compound 214, (±)-1-(1-cyanoethyl)-N-((4-methoxy-6-methyl-2-oxo-1,2-dihydropyridin-3-yl)methyl)-2-methyl-1H-pyrrolo[2,3-b]pyridine-3-carboxamide] | 1000 to 10000 | 100 to 1000 |  |  |  |
| Cc1cc(C)c(CNC(=O)c2c(C)n([C@H](C)c3ccccc3)c3nc(N4CCCC4)ncc23)c(O)n1 [Compound 142, (R)—N-((2-hydroxy-4,6-dimethylpyridin-3-yl)methyl)-6-methyl-7-(1-phenylethyl)-2-(pyrrolidin-1-yl)-7H-pyrrolo[2,3-d]pyrimidine-5-carboxamide] | 1000 to 10000 | 100 to 1000 |  |  |  |
| CNC(=O)c1cccc(C(C)n2c(C)c(C(=O)NCc3c(OC)cc(C)[nH]c3=O)c3cccnc32)c1 (stereo not shown) [Compound 263, N-((4-methoxy-6-methyl-2-oxo-1,2-dihydropyridin-3-yl)methyl)-2-methyl-1-(1-(3-(methylcarbamoyl)phenyl)ethyl)-1H-pyrrolo[2,3-b]pyridine-3-carboxamide] |  |  | 100 to 1000 | < 100 |  |
| Cc1cc(C)c(CNC(=O)c2c(C)n(C(C)c3cccc(C#N)c3)c3ccccc23)c(=O)[nH]1 (single isomer, unassigned) [Compound 228, (R or S)-1-(1-(3-cyanophenyl)ethyl)-N-((4,6-dimethyl-2-oxo-1,2-dihydropyridin-3-yl)methyl)-2-methyl-1H-indole-3-carboxamide] | 100 to 1000 | 100 to 1000 |  |  |  |
| COc1cc(C)[nH]c(=O)c1CNC(=O)c1c(C)n(C(C)c2ccn(C)c(=O)c2)c2ncccc12 (single isomer, unassigned) [Compound 268, (R or S)-N-((4-methoxy-6-methyl-2-oxo-1,2-dihydropyridin-3-yl)methyl)-2-methyl-1-(1-(1-methyl-2-oxo-1,2-dihydropyridin-4-yl)ethyl)-1H-pyrrolo[2,3-b]pyridine-3-carboxamide] | 100 to 1000 | < 100 |  |  |  |
| Cc1cc(C)c(CNC(=O)c2c(C)n(-c3cccc(C)c3C)c3ccccc23)c(=O)[nH]1 [Compound 173, N-((4,6-dimethyl-2-oxo-1,2-dihydropyridin-3-yl)methyl)-1-(2,3-dimethylphenyl)-2-methyl-1H-indole-3-carboxamide] |  |  | 100 to 1000 | < 100 |  |
| Cc1cc(C)c(CNC(=O)c2c(C)n(C(C)c3ccccc3)c3cnccc23)c(=O)[nH]1 (single isomer, unassigned) [Compound 248, (R or S)—N-((4,6-dimethyl-2-oxo-1,2-dihydropyridin-3-yl)methyl)-2-methyl-1-(1-phenylethyl)-1H-pyrrolo[2,3-c]pyridine-3-carboxamide] | 100 to 1000 |  |  |  | < 100 |
